In patent publication US20190151341A1, “APPLICATION OF TENVERMECTIN FOR PREVENTING AND TREATING PARASITE INFECTION” (ZHEJIANG HISUN PHARMACEUTICAL CO., LTD., priority 2016, published 2019):

System: digestive tract nematodes
Test: Repelling nematode in digestive track of sheep (fecal egg count)
Type: in vivo
Conditions: for Number of sheep negatively conversed: sheep (20 per group); for Number of sheep negatively conversed / Egg reduction rate (%) / Negative conversion rate (%): 1% injection 0.2 mg/kg bw s.c.; for Number of sheep negatively conversed / Egg reduction rate (%) / Negative conversion rate (%) / EPG after administration: 9th day after administration; for Egg reduction rate (%) / Negative conversion rate (%) / EPG after administration / EPG before administration: sheep; for EPG after administration / EPG before administration: eggs per gram of feces; for EPG after administration: 0.2 mg/kg bw s.c.; for EPG before administration: baseline a day before administration
Source text: Test agents: 1% ivermectin injection, 1% tenvermectin A injection, and 1% tenvermectin B injection as obtained in Example 1.
Test animals and grouping: sheep grazed under the same condition were selected, and 80 sheep of 0.8-2.0 years old naturally infected with digestive tract nematodes were selected through fecal examination. The average weight of the test sheep was 30 kg. The 80 sheep were randomly divided into 4 groups, 20 heads for each group. The first group was the ivermectin control group, the second group was the tenvermectin A group, and the third group was the tenvermectin B group. All the medicated groups were injected subcutaneously in the neck according to 0.2 mg/kg·bw. The fourth group was a blank group and was not medicated.
1) The feces of the sheep in each group were collected and examined one by one a day before administration, and the worm eggs were counted by the McMaster's method, and the number of eggs per gram of feces (EPG) was counted.
2) On the 9th day after administration, the sheep of each group were subjected to a fecal examination by McMaster's method, and EPG was counted.
3) The egg negative conversion rates and egg reduction rates were calculated according to a conventional method to assess the efficacy.

SMILES	Number of sheep negatively conversed	Egg reduction rate (%)	Negative conversion rate (%)	EPG after administration	EPG before administration
COC1CC(OC2C(C)OC(OC3C(C)=CCC4CC(CC5(CCC(C)C(C)O5)O4)OC(=O)C4C=C(C)C(O)C5OCC(=CC=CC3C)C45O)CC2OC)OC(C)C1O (stereo not shown) [Tenvermectin A, tenvermectin A]	20	100%	100%	0	11600
CC[C@H]1O[C@]2(CC[C@@H]1C)C[C@@H]1C[C@@H](C/C=C(\C)[C@@H](O[C@H]3C[C@H](OC)[C@@H](O[C@H]4C[C@H](OC)[C@@H](O)[C@H](C)O4)[C@H](C)O3)[C@@H](C)/C=C/C=C3\CO[C@@H]4[C@H](O)C(C)=C[C@@H](C(=O)O1)[C@]34O)O2 [Tenvermectin B, tenvermectin B]	20	100%	100%	0	12200
